Experimental data reported in patent US20260191965A1 (priority 2022, published 2026).

Legend:
[1] = test system: clinical isolates of Mycobacterium tuberculosis; assay: microbe, parasite or virus in culture; type: cell-based
[2] = test system: Mycobacterium tuberculosis H37Rv (ATCC 27294); type: cell-based

| SMILES | MIC range against tuberculosis strains resistant to rifampicin and metronidazole [1] [mg/L] | effect on growth of rifamycin-sensitive and rifamycin-resistant tuberculosis strains under anaerobic conditions [2] |
| --- | --- | --- |
| CO[C@H]1/C=C/O[C@@]2(C)Oc3c(C)c(O)c4c(c3C2=O)C2=NC3(CCN(CCn5c([N+](=O)[O-])cnc5C)CC3)NC2=C(NC(=O)/C(C)=C\C=C\[C@H](C)[C@H](O)[C@@H](C)[C@@H](O)[C@@H](C)[C@H](OC(C)=O)[C@@H]1C)C4=O | 0.5 to 2 |  |
| Cc1ncc([N+](=O)[O-])n1CCO [Metronidazole, metronidazole] |  | a certain inhibitory effect |
